How the values were obtained:
Assay type in all cases: in vivo
[1] = system: Ctenocephalides felis; experiment: Ctenocephalides felis oral test; conditions: Ctenocephalides felis, in Bos taurus, po, 48 h
Summary of the method: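 About 20 adult unfed fleas fed through parafilm on cattle blood containing compound (DMSO concentrate diluted in blood); blood held at 37° C., fleas at room temperature. Mortality in % scored after 2 days (100% = all killed).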

[2] = system: Rhipicephalus sanguineus; experiment: Rhipicephalus sanguineus in-vitro contact test with adult brown dog ticks; conditions: 5 μg/cm^2 (=500 g/ha), after 48 hours; for pest or weed control at 5 µg/cm2, 5 µg/cm2: Rhipicephalus sanguineus, read-out: efficacy (ticks dead or moribund)
Method: Rhipicephalus sanguineus—In-Vitro Contact Test with Adult Brown Dog Ticks
9 mg compound is solved in 1 ml acetone and diluted with acetone to the desired concentration. 250 μl of the test solution is filled in 25 ml glass test tubes and homogeneously distributed on the inner walls by rotation and tilting on a shaking device (2 h at 30 rpm). With a compound concentration of 900 ppm, an inner surface of 44.7 cm^2 and a homogeneous distribution, a dose of 5 μg/cm^2 is achieved.
After the solvent has evaporated, each test tube is filled with 5-10 adult brown dog ticks (Rhipicephalus sanguineus), closed with a perforated lid and incubated in a lying position at room temperature and relative humidity. After 48 hours efficacy is determined. The ticks are patted on the ground of the tubes and are incubated on a heating plate at 45-50° C. for at most 5 minutes. Immotile or uncoordinated moving ticks, which are not able to escape the heat by climbing upwards, are marked as dead or moribund.
An efficacy of 100% means all ticks are dead or moribund; 0% means no ticks are dead or moribund.

[3] = system: Boophilus microplus; experiment: Boophilus microplus injection test; conditions: 20 μg/animal, egg deposition after 7 days; for pest or weed control at 0.02 mg: Rhipicephalus microplus, 168 h, read-out: efficacy (infertile eggs)
Summary of the method: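 Efficacy expresses the share of infertile eggs (100% all infertile, 0% all fertile), judged at 7 days or at hatching around day 42. Five adult engorged females were each injected abdominally with 1 μl of DMSO compound solution and incubated in a climate chamber.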

[4] = system: Nezara viridula; experiment: Nezara viridula spray test; conditions: in Hordeum vulgare, 96 h
Summary of the method: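 Barley plants infested with stink bug larvae were sprayed with compound diluted in water containing 1000 ppm emulsifier. Mortality (%) was scored after 4 days, 100% meaning all bugs killed.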

[5] = system: Ctenocephalides felis; experiment: Ctenocephalides felis in-vitro contact test adult cat flea; conditions: 5 μg/cm^2 (=500 g/ha), after 48 hours; for pest or weed control at 5 µg/cm2, 5 µg/cm2: Ctenocephalides felis, read-out: efficacy (fleas dead or moribund)
Summary of the method: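 Efficacy (% dead or moribund) was scored 48 h after adult Ctenocephalides felis were confined in tubes coated with the acetone-applied compound (900 ppm, 5 μg/cm^2). Moribund status was judged by failure to escape a 45-50° C heating plate within 5 minutes.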

[6] = system: Myzus persicae; experiment: Myzus persicae oral test; conditions: 120 h
Summary of the method: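 Feeding test: compound diluted in water was combined with IPL41 insect medium (33%+15% sugar) under a parafilm seal. A mixed population of green peach aphids fed through the membrane. Mortality (%) was scored after 5 days.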

[7] = system: Nilaparvata lugens; experiment: Nilaparvata lugens spray test; conditions: for mortality at 500 g/ha: Nilaparvata lugens, in Oryza sativa, 96 h
Summary of the method: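 Rice plants sprayed with compound diluted in water containing 1000 ppm emulsifier, then infested with brown planthopper. Mortality (%) scored after 4 days, 100% meaning all insects killed.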

[8] = system: Diabrotica balteata; experiment: Diabrotica balteata spray test; conditions: 160 μg/well, wheat seeds, after 7 days; for pest or weed control at 160 µg/disc, 160 µg/well: Diabrotica balteata, 168 h, read-out: efficacy (seedlings grown)
Summary of the method: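 Efficacy (%) read 7 days after infesting treated seedlings with 10-20 banded cucumber beetle larvae, 100% meaning growth as in uninfected untreated control and 0% no growth. Test solutions in water containing 1000 ppm emulsifier were sprayed onto wheat seeds germinated for 1 day on agar.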

[9] = system: Phaedon cochleariae; experiment: Phaedon cochleariae spray test; conditions: foliar, 168 h, Chinese cabbage leaf disks, after 7 days
Method: Phaedon cochleariae—Spray Test
(§1) To produce a suitable preparation of active compound, 1 part by weight of active compound is mixed with the stated amount of solvents and is diluted with water, containing an emulsifier concentration of 1000 ppm, to the desired concentration. Further test concentrations are prepared by dilution with emulsifier containing water.
Chinese cabbage (Brassica pekinensis) leaf disks are sprayed with a preparation of the active ingredient of the desired concentration. Once dry, the leaf disks are infested with mustard beetle larvae (Phaedon cochleariae).
After 7 days mortality in % is determined. 100% means all beetle larvae have been killed and 0% means none of the beetle larvae have been killed.

[10] = system: Spodoptera frugiperda; experiment: Spodoptera frugiperda spray test; conditions: in Zea mays, 168 h
Summary of the method: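 Percent larval kill read at day 7 on Zea mays leaf pieces that were spray-treated and, after drying, infested. Spray preparations made by dilution with emulsifier-containing water (1000 ppm).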

[11] = system: Culex quinquefasciatus strain P00; experiment: Culex quinquefasciatus test (CULXFA surface treatment & contact assay); conditions: 24 hours after contact, read-out: efficacy (mortality); for mortality at 4 mg/m2: surface concentration 4 mg/m^2, 30 minutes exposure; for mortality at 20 mg/m2: surface concentration 20 mg/m^2, 30 minutes exposure
Summary of the method: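 Compound dissolved in acetone (2 mg/ml) with 2000 ppm rapeseed oil methyl ester, applied to glazed tile and dried. Adult strain P00 mosquitoes exposed to the surface for 30 minutes. Percent mortality scored 24 hours after contact.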

[12] = system: Aedes aegypti strain MONHEIM; experiment: Aedes aegypti test (AEDSAE surface treatment & contact assay); conditions: 24 hours after contact, read-out: efficacy (mortality); for mortality at 4 mg/m2: surface concentration 4 mg/m^2, 30 minutes exposure; for mortality at 20 mg/m2: surface concentration 20 mg/m^2, 30 minutes exposure
Summary of the method: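 Compound dissolved in acetone (2 mg/ml) with 2000 ppm rapeseed oil methyl ester and dried onto a glazed tile. Adult mosquitoes held on the treated surface for 30 minutes exposure. Percent mortality scored 24 hours after contact.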

[13] = system: Musca domestica strain WHO-N; experiment: Musca domestica test (MUSCDO surface treatment & contact assay); conditions: 24 hours after contact, read-out: efficacy (mortality); for mortality at 20 mg/m2: surface concentration 20 mg/m^2, 30 minutes exposure
Method: Musca domestica Test (MUSCDO Surface Treatment & Contact Assay)
(§2) Solvent: Aceton+2000 ppm rapeseed oil methyl ester (RME)
(§3) In order to produce a sufficient, active ingredient containing solution it is necessary to solve the test-compound in the solvent-mix (Acetone at 2 mg/ml/RME 2000 ppm). This solution is pipetted onto a glazed tile and after evaporation of the Acetone, adult flies of the species Musca domestica strain WHO-N are placed onto the dried surface. The exposure time is 30 minutes.
(§4) Mortality in percent (%) is determined 24 hours after contact to the treated surface. 100% mortality means that all test-insects are dead, whereas 0% means that not a single insect died.

[14] = system: Anopheles funestus strain FUMOZ-R; experiment: Anopheles funestus test (ANPHFU surface treatment & contact assay); conditions: 24 hours after contact, read-out: efficacy (mortality); for mortality at 4 mg/m2: surface concentration 4 mg/m^2, 30 minutes exposure; for mortality at 20 mg/m2: surface concentration 20 mg/m^2, 30 minutes exposure
Method: Anopheles funestus Test (ANPHFU Surface Treatment & Contact Assay)
as §2
as §3, with “mosquitoes” for “flies”, “Anopheles funestus” for “Musca domestica”, “FUMOZ-R (Hunt et al., Med Vet Entomol. 2005 September; 19(3):271-5)” for “WHO-N”
as §4

[15] = system: Myzus persicae; experiment: Myzus persicae spray test; conditions: in Brassica rapa, foliar, 120 h
Method: Myzus persicae—Spray Test
as §1
Chinese cabbage (Brassica pekinensis) leaf disks infected with all instars of the green peach aphid (Myzus persicae), are sprayed with a preparation of the active ingredient of the desired concentration.
After 5 days mortality in % is determined. 100% means all aphids have been killed and 0% means none of the aphids have been killed.

SMILES	mortality at 100 ppm [1] [%]	pest or weed control at 5 µg/cm2, 5 µg/cm2 [2] [%]	pest or weed control at 0.02 mg [3] [%]	mortality at 500 g/ha [4] [%]	pest or weed control at 5 µg/cm2, 5 µg/cm2 [5] [%]	mortality at 4 ppm [6] [%]	mortality at 20 ppm [6] [%]	mortality at 500 g/ha [7] [%]	pest or weed control at 160 µg/disc, 160 µg/well [8] [%]	mortality at 500 g/ha [9] [%]	mortality at 500 g/ha [10] [%]	mortality at 20 mg/m2 [12] [%]	mortality at 20 mg/m2 [13] [%]	further results
CC(c1ncnn1-c1ncccn1)N(CC1CC1)C(=O)c1cncc(S(C)(=O)=O)c1 (centres unmarked) [Example I-002]	100	80	100	100	100	–	–	–	–	–	–	–	–	–
CC(c1ncnn1-c1ncccn1)N(CC1CC1)C(=O)c1cc(Cl)cc(S(C)(=O)=O)c1 (centres unmarked) [Example I-003, 3-chloro-N-(cyclopropylmethyl)-5-(methylsulfonyl)-N-{1-[1-(pyrimidin-2-yl)-1H-1,2,4-triazol-5-yl]ethyl}benzamide]	100	100	100	100	100	90	100	100	100	100	–	–	–	–
CC(c1ncnn1-c1ncccn1)N(CC1CC1)C(=O)c1cc(Cl)cc(Cl)c1Cl (centres unmarked) [Example I-009]	100	–	–	–	–	100	100	–	100	100	100	–	–	–
CC(c1ncnn1-c1ncccn1)N(CC1CC1)C(=O)c1cc(-c2ccc(F)cc2)cc(C(F)(F)F)c1 (centres unmarked) [Example I-012]	100	–	–	–	–	–	100	–	100	100	100	–	–	–
CC(c1ncnn1-c1ncccn1)N(CC1CC1)C(=O)c1cc(Cl)cc(S(=O)(=O)C(F)(F)F)c1 (centres unmarked) [Example I-019]	100	–	100	100	100	100	100	100	100	100	100	90 to 100	80 to 100	mortality at 4 mg/m2 [11]: 80 to 100%; mortality at 20 mg/m2 [11]: 80 to 100%; mortality at 4 mg/m2 [12]: 80 to 100%
CC(c1ncnn1-c1ncccn1)N(CC1CC1)C(=O)c1csc(Cl)c1 (centres unmarked) [Example I-021]	100	80	80	–	100	–	–	–	–	–	–	–	–	–
CC(c1ncnn1-c1ncccn1)N(CC1CC1)C(=O)c1cc(Cl)c(Cl)s1 (centres unmarked) [Example I-024]	100	–	100	–	100	100	100	100	100	100	–	90 to 100	–	mortality at 4 mg/m2 [14]: 85 to 100%; mortality at 20 mg/m2 [14]: 85 to 100%
CC(c1ncnn1-c1ncccn1)N(CC1CC1)C(=O)c1cc(C(F)(F)F)n(C)n1 (centres unmarked) [Example I-025]	100	–	100	100	100	–	100	100	100	83	–	90 to 100	80 to 100	mortality at 4 mg/m2 [14]: 85 to 100%; mortality at 20 mg/m2 [14]: 85 to 100%; mortality at 20 mg/m2 [11]: 80 to 100%
CC(c1ncnn1-c1ncccn1)N(CC1CC1)C(=O)c1cc(C2CC2)on1 (centres unmarked) [Example I-028]	100	–	–	–	–	–	–	–	100	100	–	–	–	–
CC(NC(=O)c1cc(Cl)cc(S(C)(=O)=O)c1)c1ncnn1-c1ncccn1 (centres unmarked) [Example I-037]	–	–	–	–	–	–	–	–	–	–	–	–	–	efficacy (ticks dead or moribund) [2]: 80%; efficacy (seedlings grown) [8]: 100%; efficacy (infertile eggs) [3]: 100%; efficacy (fleas dead or moribund) [5]: 100%
CC(NC(=O)c1cc(F)cc(C2CC2)c1)c1ncnn1-c1ncccn1 (centres unmarked) [Example I-045]	–	–	–	–	–	–	–	–	–	–	–	–	–	efficacy (ticks dead or moribund) [2]: 100%; mortality ([7]; 500 g/ha, rice plants, after 4 days): 90%; efficacy (seedlings grown) [8]: 100%; efficacy (infertile eggs) [3]: 100%; efficacy (fleas dead or moribund) [5]: 100%
C[C@@H](NC(=O)c1cc(OC(F)(F)F)cc(C2CC2)c1)c1ncnn1-c1ccc(C#N)cn1 [Example I-053]	100	100	–	–	–	–	–	–	100	–	100	90 to 100	80 to 100	mortality at 4 mg/m2 [12]: 80 to 100%; mortality at 4 mg/m2 ([13]; surface concentration 4 mg/m^2, 30 minutes exposure): 80 to 100%
CSc1cc(Cl)cc(C(=O)N[C@H](C)c2ncnn2-c2ccc(C#N)cn2)c1 [Example I-066]	100	80	–	100	100	90	–	–	100	–	100	90 to 100	80 to 100	mortality at 500 g/ha [15]: 90%; mortality at 4 mg/m2 [14]: 85 to 100%; mortality at 20 mg/m2 [14]: 85 to 100%; mortality at 4 mg/m2 [11]: 80 to 100%; mortality at 20 mg/m2 [11]: 80 to 100%; mortality at 4 mg/m2 [12]: 80 to 100%

Source: patent US12187705B2, “Heteroaryl-triazole and heteroaryl-tetrazole compounds as pesticides” (Bayer Aktiengesellschaft, priority 2018, dated 2025)
